In US20210186962A1, “METHODS OF SCHIZOPHRENIA TREATMENT” (INTRA-CELLULAR THERAPIES, INC., priority 2019, published 2021):

Tests used:
[1] = system: adult patients with schizophrenia; assay: Pooled short-term (4- to 6-week) placebo-controlled schizophrenia trials, safety; format: in vivo, human; conditions: for Somnolence/Sedation, adverse reaction incidence: placebo 10%, 4-methylbenzenesulfonate
Experimental: Of these patients, 811 participated in short-term (4- to 6-week), placebo-controlled trials with doses ranging from 14 to 84 mg/day.
In the 4- to 6-week trials, data were collected using the Simpson Angus Scale (SAS) for EPS (total score ranges from 0 to 40), the Barnes Akathisia Rating Scale (BARS) for akathisia (total score ranges from 0 to 14), and the Abnormal Involuntary Movement Scale (AIMS) for dyskinesia (total score ranges from 0 to 28).

[2] = system: adult patients with a diagnosis of schizophrenia; assay: Study 1 (NCT01499563), four-week placebo-controlled, PANSS total score; format: in vivo, human
Description: Study 1 (NCT01499563) was a four-week, randomized, double-blind, placebo-controlled, multi-center study in adult patients with a diagnosis of schizophrenia according to the DSM-IV-TR criteria. The primary efficacy measure was the Positive and Negative Syndrome Scale (PANSS) total score. The PANSS is a 30-item scale used to measure symptoms of schizophrenia. Each item is rated by a clinician on a seven-point scale. A score of 1 indicates the absence of symptoms, and a score of 7 indicates extremely severe symptoms. The PANSS total score may range from 30 to 210 with higher scores reflecting greater overall symptom severity.
Median age was 42 years (range 20 to 55 years). 17% were female, 19% were Caucasian, and 78% were African American.

[3] = system: patients with stable schizophrenia; assay: Uncontrolled open-label trial for up to 1 year; format: in vivo, human
Description: A total of 4.7% of patients with normal hemoglobin A1c (<6.5%) at baseline developed elevated levels (>6.5%) post-baseline.

[4] = system: patients with schizophrenia; assay: QTcF four-arm crossover study; format: in vivo, human
Experimental: QTcF interval was evaluated in a randomized, placebo- and active-(moxifloxacin 400 mg) controlled, four-arm crossover study utilizing concentration-QTc effect modeling in 33 patients with schizophrenia.

[5] = system: adult patients with a diagnosis of schizophrenia; assay: Study 2 (NCT02282761), four-week placebo-controlled, PANSS total score; format: in vivo, human
Description: Study 2 (NCT02282761) was a four-week, randomized, double-blind, placebo-controlled, multi-center study in adult patients with a diagnosis of schizophrenia according to the DSM-5 criteria. The primary efficacy measure was the PANSS total score. […] Median age was 44 years (range 19 to 60 years); 23% were female, 26% were Caucasian and 66% were African American.

[6] = target: OAT1 (Homo sapiens, UniProt Q4U2R8); assay: In vitro transporter inhibition; format: in vitro ADME
Sequence of OAT1 (Q4U2R8 whole entry): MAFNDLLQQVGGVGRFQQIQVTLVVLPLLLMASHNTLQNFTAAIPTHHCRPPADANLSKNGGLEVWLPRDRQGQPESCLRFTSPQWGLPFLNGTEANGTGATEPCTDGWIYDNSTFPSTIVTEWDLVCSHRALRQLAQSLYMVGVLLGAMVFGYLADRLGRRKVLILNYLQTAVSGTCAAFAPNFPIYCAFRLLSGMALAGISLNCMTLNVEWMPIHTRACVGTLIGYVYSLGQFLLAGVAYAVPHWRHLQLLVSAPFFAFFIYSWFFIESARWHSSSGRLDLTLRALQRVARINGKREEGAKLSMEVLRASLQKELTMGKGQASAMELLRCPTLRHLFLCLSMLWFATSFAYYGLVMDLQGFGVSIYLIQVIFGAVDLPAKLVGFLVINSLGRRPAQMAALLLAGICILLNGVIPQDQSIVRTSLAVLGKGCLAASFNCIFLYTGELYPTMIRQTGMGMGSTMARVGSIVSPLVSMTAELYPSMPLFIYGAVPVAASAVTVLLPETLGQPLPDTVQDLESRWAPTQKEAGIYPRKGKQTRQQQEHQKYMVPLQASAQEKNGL

[7] = target: OATP1B3 (Homo sapiens, UniProt Q9NPD5); assay: In vitro transporter inhibition; format: in vitro ADME
Sequence of OATP1B3 (Q9NPD5 whole entry): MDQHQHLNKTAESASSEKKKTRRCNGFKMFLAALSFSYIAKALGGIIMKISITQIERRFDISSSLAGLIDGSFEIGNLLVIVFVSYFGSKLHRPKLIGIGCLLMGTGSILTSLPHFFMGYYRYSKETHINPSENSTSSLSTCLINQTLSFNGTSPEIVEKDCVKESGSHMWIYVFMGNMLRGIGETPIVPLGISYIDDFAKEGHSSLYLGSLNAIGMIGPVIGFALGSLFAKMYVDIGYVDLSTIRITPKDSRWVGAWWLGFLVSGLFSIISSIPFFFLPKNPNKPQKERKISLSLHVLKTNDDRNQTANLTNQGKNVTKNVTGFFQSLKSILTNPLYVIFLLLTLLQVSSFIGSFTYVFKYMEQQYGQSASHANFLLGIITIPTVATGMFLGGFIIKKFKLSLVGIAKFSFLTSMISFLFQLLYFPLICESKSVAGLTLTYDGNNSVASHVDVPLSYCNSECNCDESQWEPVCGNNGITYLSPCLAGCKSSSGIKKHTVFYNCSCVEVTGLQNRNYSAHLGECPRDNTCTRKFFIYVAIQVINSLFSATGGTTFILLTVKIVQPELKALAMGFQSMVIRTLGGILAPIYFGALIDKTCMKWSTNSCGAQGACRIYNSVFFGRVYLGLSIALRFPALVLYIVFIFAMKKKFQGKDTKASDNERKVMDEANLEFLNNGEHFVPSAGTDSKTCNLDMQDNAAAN

[8] = system: UGT 1A1, 1A4, 2B15; AKR 1C1, 1B10, 1C4; CYP 3A4, 2C8, 1A2; assay: In vitro studies of enzymes involved in metabolism; format: in vitro ADME
[9] = Pharmacokinetics in specific populations; format: in vivo, human
Description: Use of lumateperone (e.g., lumateperone tosylate) is not recommended for patients with moderate (Child-Pugh class B) to severe hepatic impairment (Child-Pugh class C). […] No dosage adjustment is recommended for patients with mild hepatic impairment (Child-Pugh A).

[10] = system: CYP2B6; assay: In vitro CYP induction; format: in vitro ADME
[11] = system: muscarinic receptors; assay: Receptor binding, muscarinic; conditions: at 100 nM
[12] = Drug interaction: CYP3A4 substrate midazolam; format: in vivo, human; conditions: single or multiple doses of lumateperone in patients with schizophrenia
[13] = target: dopamine D2 receptors (Homo sapiens, UniProt P14416); assay: Receptor binding affinity, dopamine D2
Sequence of dopamine D2 receptors (P14416 whole entry): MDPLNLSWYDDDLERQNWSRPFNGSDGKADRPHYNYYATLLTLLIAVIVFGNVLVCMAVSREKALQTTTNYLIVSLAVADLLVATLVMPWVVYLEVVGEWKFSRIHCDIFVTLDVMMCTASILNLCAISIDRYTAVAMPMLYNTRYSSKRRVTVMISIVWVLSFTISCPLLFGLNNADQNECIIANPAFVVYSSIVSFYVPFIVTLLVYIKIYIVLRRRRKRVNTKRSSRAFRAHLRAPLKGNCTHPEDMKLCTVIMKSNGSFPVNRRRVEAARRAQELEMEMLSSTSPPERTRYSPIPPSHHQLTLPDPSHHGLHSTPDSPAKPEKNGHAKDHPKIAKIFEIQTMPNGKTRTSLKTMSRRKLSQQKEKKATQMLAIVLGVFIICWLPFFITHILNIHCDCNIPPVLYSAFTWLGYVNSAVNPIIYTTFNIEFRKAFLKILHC

[14] = target: OATP1B1 (Homo sapiens, UniProt Q9Y6L6); assay: In vitro transporter inhibition; format: in vitro ADME
[15] = target: OCT2 (Homo sapiens, UniProt O15244); assay: In vitro transporter inhibition; format: in vitro ADME
Sequence of OCT2 (O15244 whole entry): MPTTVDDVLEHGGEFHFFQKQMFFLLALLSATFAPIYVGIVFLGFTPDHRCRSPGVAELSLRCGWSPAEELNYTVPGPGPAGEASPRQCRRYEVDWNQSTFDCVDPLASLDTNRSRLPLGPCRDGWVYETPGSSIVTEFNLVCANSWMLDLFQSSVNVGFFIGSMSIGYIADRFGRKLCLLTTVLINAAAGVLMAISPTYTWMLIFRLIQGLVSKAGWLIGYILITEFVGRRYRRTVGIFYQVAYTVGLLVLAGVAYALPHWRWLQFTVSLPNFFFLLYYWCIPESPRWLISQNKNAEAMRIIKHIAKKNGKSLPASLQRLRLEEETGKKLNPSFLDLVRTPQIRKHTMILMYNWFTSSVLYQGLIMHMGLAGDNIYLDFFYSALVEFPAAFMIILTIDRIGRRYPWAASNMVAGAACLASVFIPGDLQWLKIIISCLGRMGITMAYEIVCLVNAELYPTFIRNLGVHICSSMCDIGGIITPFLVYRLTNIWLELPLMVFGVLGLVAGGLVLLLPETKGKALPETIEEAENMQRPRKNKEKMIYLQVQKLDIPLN

[16] = Plasma protein binding; format: in vitro ADME; conditions: at 5 μM in human plasma (about 70-fold higher than therapeutic concentrations)
[17] = Drug interaction: effects of other drugs on lumateperone exposure; set-up: species or system human; conditions: in vivo
Description: Such concomitant use should therefore be avoided. Moderate CYP 3A4 inhibitors include amprenavir, ciprofloxacin, cyclosporine, diltiazem, erythromycin, fluconazole, fluvoxamine, and verapamil. Strong CYP 3A4 inhibitors include clarithromycin, grapefruit juice, itraconazole, voriconazole, nefazodone, ritonavir, and nelfinavir.
Such concomitant use should therefore be avoided. CYP 3A4 inducers include carbamazepine, phenytoin, rifampin, St. John's wort, bosentan, efavirenz, etravirine, modafinil, nafcillin, aprepitant, armodafinil, pioglitazone, and prednisone.

[18] = target: P-gp (Homo sapiens, UniProt P08183); assay: In vitro transporter substrate; format: in vitro ADME
[19] = target: BCRP (Homo sapiens, UniProt Q9UNQ0); assay: In vitro transporter substrate; format: in vitro ADME
Sequence of BCRP (Q9UNQ0 whole entry): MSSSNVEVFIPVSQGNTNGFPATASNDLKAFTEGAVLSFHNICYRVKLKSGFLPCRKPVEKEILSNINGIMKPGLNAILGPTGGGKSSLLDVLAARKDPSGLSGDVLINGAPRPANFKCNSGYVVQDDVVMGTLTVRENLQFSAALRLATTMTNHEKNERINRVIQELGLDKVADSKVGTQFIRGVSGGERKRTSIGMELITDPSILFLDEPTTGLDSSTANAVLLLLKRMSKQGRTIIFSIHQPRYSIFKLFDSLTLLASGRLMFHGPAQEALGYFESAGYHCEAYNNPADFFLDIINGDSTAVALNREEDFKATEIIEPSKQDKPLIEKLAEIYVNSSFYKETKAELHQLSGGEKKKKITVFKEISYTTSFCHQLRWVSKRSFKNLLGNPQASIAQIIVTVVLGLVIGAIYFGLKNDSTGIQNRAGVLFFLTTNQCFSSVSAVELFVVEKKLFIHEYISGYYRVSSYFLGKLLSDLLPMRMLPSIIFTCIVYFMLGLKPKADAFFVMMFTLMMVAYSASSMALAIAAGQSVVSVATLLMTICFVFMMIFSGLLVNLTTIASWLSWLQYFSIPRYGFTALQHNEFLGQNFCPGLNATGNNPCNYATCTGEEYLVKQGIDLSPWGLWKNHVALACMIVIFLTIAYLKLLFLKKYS

[20] = Pharmacokinetic studies (oral, intravenous, food effect)
[21] = system: histaminergic receptors; assay: Receptor binding, histaminergic; conditions: at 100 nM
[22] = system: CYP1A2; assay: In vitro CYP induction; format: in vitro ADME
[23] = target: (Homo sapiens, UniProt Q8TCC7); assay: In vitro transporter inhibition; format: in vitro ADME
Sequence of (Homo sapiens, UniProt Q8TCC7) (Q8TCC7 whole entry): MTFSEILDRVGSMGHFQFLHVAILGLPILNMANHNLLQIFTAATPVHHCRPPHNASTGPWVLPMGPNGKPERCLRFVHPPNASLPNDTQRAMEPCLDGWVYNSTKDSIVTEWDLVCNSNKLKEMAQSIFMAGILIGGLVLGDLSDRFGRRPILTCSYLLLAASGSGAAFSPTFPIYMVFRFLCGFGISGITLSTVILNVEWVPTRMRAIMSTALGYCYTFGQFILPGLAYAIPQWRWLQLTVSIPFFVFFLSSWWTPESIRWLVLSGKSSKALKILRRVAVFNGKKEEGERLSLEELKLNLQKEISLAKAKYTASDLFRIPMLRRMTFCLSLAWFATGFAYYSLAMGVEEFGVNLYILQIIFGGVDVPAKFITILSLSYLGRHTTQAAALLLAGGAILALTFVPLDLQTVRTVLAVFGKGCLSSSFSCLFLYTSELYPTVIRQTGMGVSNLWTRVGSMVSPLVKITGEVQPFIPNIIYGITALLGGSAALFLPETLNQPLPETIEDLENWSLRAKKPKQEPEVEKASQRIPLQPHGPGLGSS

[24] = target: CYP2D6 (Homo sapiens, UniProt P10635); assay: In vitro CYP inhibition; format: in vitro ADME
Sequence of CYP2D6 (P10635 whole entry): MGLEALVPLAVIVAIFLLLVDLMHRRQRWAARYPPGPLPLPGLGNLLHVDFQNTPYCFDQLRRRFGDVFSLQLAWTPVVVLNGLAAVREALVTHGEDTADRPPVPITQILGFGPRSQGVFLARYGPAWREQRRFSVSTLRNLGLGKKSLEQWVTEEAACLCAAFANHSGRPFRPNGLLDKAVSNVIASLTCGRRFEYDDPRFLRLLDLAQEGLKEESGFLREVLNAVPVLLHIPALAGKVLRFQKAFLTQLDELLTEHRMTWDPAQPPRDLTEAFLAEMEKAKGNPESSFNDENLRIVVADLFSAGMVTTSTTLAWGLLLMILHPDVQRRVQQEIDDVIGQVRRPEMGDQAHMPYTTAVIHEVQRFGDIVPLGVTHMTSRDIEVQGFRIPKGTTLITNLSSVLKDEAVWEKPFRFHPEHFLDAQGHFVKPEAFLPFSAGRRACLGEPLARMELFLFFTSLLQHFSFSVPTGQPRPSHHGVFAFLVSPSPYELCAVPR

[25] = target: CYP2C9 (Homo sapiens, UniProt P11712); assay: In vitro CYP inhibition; format: in vitro ADME
Sequence of CYP2C9 (P11712 whole entry): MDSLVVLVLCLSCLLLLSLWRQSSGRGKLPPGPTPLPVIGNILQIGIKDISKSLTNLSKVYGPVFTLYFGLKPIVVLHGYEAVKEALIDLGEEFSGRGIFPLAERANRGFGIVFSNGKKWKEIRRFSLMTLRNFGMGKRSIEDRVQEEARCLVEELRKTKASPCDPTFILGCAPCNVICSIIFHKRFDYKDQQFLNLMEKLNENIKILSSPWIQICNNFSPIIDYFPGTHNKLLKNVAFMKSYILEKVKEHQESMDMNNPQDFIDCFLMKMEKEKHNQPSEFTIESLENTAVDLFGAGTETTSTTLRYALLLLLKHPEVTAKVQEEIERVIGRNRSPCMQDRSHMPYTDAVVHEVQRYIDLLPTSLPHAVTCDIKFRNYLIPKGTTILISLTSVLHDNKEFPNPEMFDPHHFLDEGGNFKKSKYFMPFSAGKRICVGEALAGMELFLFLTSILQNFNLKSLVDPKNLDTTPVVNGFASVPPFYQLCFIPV

[26] = system: CYP3A4; assay: In vitro CYP induction; format: in vitro ADME
[27] = target: CYP2C19 (Homo sapiens, UniProt P33261); assay: In vitro CYP inhibition; format: in vitro ADME
Sequence of CYP2C19 (P33261 whole entry): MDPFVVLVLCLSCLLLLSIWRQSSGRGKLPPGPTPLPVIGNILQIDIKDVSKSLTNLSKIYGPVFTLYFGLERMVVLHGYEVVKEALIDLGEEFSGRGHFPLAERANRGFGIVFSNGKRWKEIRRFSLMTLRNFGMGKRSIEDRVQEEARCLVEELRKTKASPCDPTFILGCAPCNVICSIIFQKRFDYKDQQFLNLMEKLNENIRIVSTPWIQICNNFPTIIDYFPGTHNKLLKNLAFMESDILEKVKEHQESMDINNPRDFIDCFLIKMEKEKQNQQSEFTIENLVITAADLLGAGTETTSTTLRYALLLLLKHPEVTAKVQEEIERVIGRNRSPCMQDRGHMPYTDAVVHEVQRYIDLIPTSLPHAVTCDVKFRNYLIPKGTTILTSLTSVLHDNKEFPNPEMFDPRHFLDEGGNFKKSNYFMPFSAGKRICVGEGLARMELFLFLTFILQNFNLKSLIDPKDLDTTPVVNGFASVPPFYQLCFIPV

[28] = target: CYP1A2 (Homo sapiens, UniProt P05177); assay: In vitro CYP inhibition; format: in vitro ADME
[29] = Human mass balance study, 14C-labeled oral dose; format: in vivo
[30] = system: elderly subjects with dementia; conditions: cited from earlier work
[31] = 4- to 6-week trials, 60 mg tosylate daily, N = 406, placebo 1%
[32] = 4- to 6-week trials, 60 mg tosylate daily, N = 406, placebo 2%

CN1CCN2c3c(cccc31)[C@@H]1CN(CCCC(=O)c3ccc(F)cc3)CC[C@@H]12.Cc1ccc(S(=O)(=O)O)cc1 [Lumateperone tosylate, 4-((6bR,10aS)-3-methyl-2,3,6b,9,10,10a-hexahydro-1H,7H-pyrido[3′,4′: 4,5]pyrrolo[1,2,3-de]quinoxalin-8-yl)-1-(4-fluoro-phenyl)-butan-1-one 4-methylbenzenesulfonate]
frequency of reported events related to extrapyramidal symptoms (EPS) ([1]; 4- to 6-week placebo-controlled studies, placebo 6.3%): 6.7% | Creatine Phosphokinase Increased, adverse reaction incidence [1, 31]: 4% | Fatigue, adverse reaction incidence [1, 31]: 3% | Hepatic Enzymes Increased (ALT, AST, “hepatic enzymes” increased, or liver function tests abnormal), adverse reaction incidence [1, 31]: 2% | Dry Mouth, adverse reaction incidence [1, 32]: 6% | Vomiting, adverse reaction incidence [1, 32]: 3% | Dizziness (dizziness, dizziness postural), adverse reaction incidence ([1]; 4- to 6-week trials, 60 mg tosylate daily, N = 406, placebo 3%): 5% | Nausea, adverse reaction incidence ([1]; 4- to 6-week trials, 60 mg tosylate daily, N = 406, placebo 5%): 9% | Somnolence/Sedation, adverse reaction incidence ([1]; 4- to 6-week trials, 60 mg tosylate daily, N = 406): 24% | Somnolence/Sedation, adverse reaction incidence ([1]; 4- to 6-week trials, 60 mg tosylate daily, N = 406, listed as lumateperone tosylate): 24% | mean change from baseline, Barnes Akathisia Rating Scale (BARS) ([1]; 4- to 6-week trials, score range 0 to 14, placebo 0): −0.1 | mean change from baseline, Abnormal Involuntary Movement Scale (AIMS) ([1]; 4- to 6-week trials, score range 0 to 28, placebo 0): 0.1 | mean change from baseline, Simpson Angus Scale (SAS) ([1]; 4- to 6-week trials, score range 0 to 40, placebo 0): 0.1 | frequency of orthostatic hypotension ([1]; clinical trials, placebo 0%): 0.7% | rate of syncope ([1]; clinical trials, placebo 0.2%): 0.2% | rate of any single adverse reaction leading to discontinuation ([1]; none occurred at >2%): ≤ 2% | mean changes from baseline and proportion of subjects with increase in weight ≥7% from baseline to end of study, versus placebo ([1]; pooled placebo-controlled trials): similar | reduction from baseline to Day 28 in PANSS total score compared to placebo ([2]; 42 mg): statistically significant reduction | PANSS Total, Placebo-subtracted Difference (95% CI) ([2]; 42 mg, Day 28, CI −10.5, −1.1): −5.8 | PANSS Total, LS Mean Change from Baseline (SE) ([2]; 42 mg, Day 28, N 84, placebo −7.4 (1.7)): −13.2 (1.7) | treatment effect on PANSS total score vs. placebo ([2]; 84 mg (two times the recommended daily dose)): not statistically significant | mean change in body weight ([3]; Day 175, SD 5.6): approximately −2 kg | mean change in body weight ([3]; Day 350, SD 7.4): approximately −3.2 kg | patients with normal hemoglobin A1c (<6.5%) at baseline who developed elevated levels (>6.5%) post-baseline ([3]; up to 1 year): 4.7% | placebo-corrected change from baseline QTcF (90% two-sided upper confidence interval) ([4]; 42 mg orally once daily for 5 days): 4.9 (8.9) ms | placebo-corrected change from baseline QTcF (90% two-sided upper confidence interval) ([4]; supratherapeutic dose 126 mg orally once daily for 5 days): 15.8 (19.8) ms | treatment effect on PANSS total score vs. placebo ([5]; 28 mg (two-thirds of the recommended daily dose)): not statistically significant | reduction from baseline to Day 28 in PANSS total score compared to placebo ([5]; 42 mg): statistically significant reduction | PANSS Total, Placebo-subtracted Difference (95% CI) ([5]; 42 mg, Day 28, CI −7.8, −0.6): −4.2 | PANSS Total, LS Mean Change from Baseline (SE) ([5]; 42 mg, Day 28, N 150, placebo −10.3 (1.3)): −14.5 (1.3)

CN1CCN2c3c(cccc31)[C@@H]1CN(CCCC(=O)c3ccc(F)cc3)CC[C@@H]12 [Lumateperone, 4-((6bR,10aS)-3-methyl-2,3,6b,9,10,10a-hexahydro-1H,7H-pyrido[3′,4′: 4,5]pyrrolo[1,2,3-de]quinoxalin-8-yl)-1-(4-fluoro-phenyl)-butan-1-one]
inhibition of OAT1 [6]: little to no inhibition | inhibition of OATP1B3 [7]: little to no inhibition | enzymes involved in metabolism [8]: involved in the metabolism | exposure in patients with moderate and severe hepatic impairment ([9]; Child-Pugh class B and C): higher exposure | differences in pharmacokinetics based on age, sex, or race ([9]; in vivo): No clinically significant differences | induction of CYP2B6 [10]: no induction | inhibition, muscarinic receptors [11]: less than 50% | effect on pharmacokinetics of midazolam (CYP3A4 substrate) or its metabolite 1-hydroxymidazolam [12]: No clinically significant differences | Ki [13]: 32 nM | inhibition of OATP1B1 [14]: little to no inhibition | inhibition of OCT2 [15]: little to no inhibition | fraction unbound at 5 μM [16]: 0.026 | effect of concomitant CYP3A4 inducers on lumateperone exposure [17]: decreases the exposure | effect of concomitant moderate or strong CYP3A4 inhibitors on lumateperone exposure [17]: increases lumateperone exposure | P-gp substrate [18]: did not appear to be | BCRP substrate [19]: did not appear to be | increase of mean AUC by food ([20]; high-fat meal): 9% | lowering of mean Cmax by food ([20]; high-fat meal): 33% | Vd ([20]; human, in vivo, iv): ~4.1 L/kg | clearance ([20]; human, in vivo, iv): ~465 mL/min | half-life ([20]; human, in vivo, iv): ~18 h | bioavailability ([20]; human, plasma, oral): ~4.4% | Tmax ([20]; human, plasma, oral, delay of median Tmax by food, high-fat meal): ~1 h | Tmax ([20]; human, plasma, oral, median Tmax, fasted state): 1 h | Tmax ([20]; human, plasma, oral, median Tmax, in the presence of food): 2 h | increase in steady-state exposure with dose ([20]; range of 21 mg to 56 mg): approximately dose-proportional | inhibition, histaminergic receptors [21]: less than 50% | induction of CYP1A2 [22]: no induction | inhibition of OATS [23]: little to no inhibition | inhibition of CYP2D6 [24]: little to no inhibition | inhibition of CYP2C9 [25]: little to no inhibition | induction of CYP3A4 [26]: no induction | inhibition of CYP2C19 [27]: little to no inhibition | inhibition of CYP1A2 [28]: little to no inhibition | lumateperone share of total plasma radioactivity ([29]; after a single 14C-labeled oral dose): about 2.8% | dose excreted as unchanged lumateperone in the urine ([29]; human mass balance study): Less than 1% | metabolites identified in vivo ([29]; in vivo): more than twenty

O=C1CCc2ccc(OCCCCN3CCN(c4cccc(Cl)c4Cl)CC3)cc2N1 [aripiprazole]
incidence of stroke and transient ischemic attack, including fatal stroke, versus placebo [30]: higher incidence

Cc1cc2c(s1)Nc1ccccc1N=C2N1CCN(C)CC1 [olanzapine]
incidence of stroke and transient ischemic attack, including fatal stroke, versus placebo [30]: higher incidence

Cc1nc2n(c(=O)c1CCN1CCC(c3noc4cc(F)ccc34)CC1)CCCC2 [risperidone]
incidence of stroke and transient ischemic attack, including fatal stroke, versus placebo [30]: higher incidence
